Data from patent US20160318933A1, “FUSED PYRAZOLE DERIVATIVE” (SUMITOMO DAINIPPON PHARMA CO., LTD., priority 2013, published 2016).

How the values were obtained:
[1] = Brain penetration study in rat (Kp,uu,brain); format: in vivo; conditions: brain and plasma (unbound); 7-week-old SD-type or WKY-type rat; subcutaneous or oral administration; plasma and brain collected 0.5, 1 or 2 hours after administration; LC-MS; read-out: Kp,uu,brain (Unbound brain-to-plasma drug concentration ratio)
Description: In this study, the brain penetration of the present compounds can be evaluated. Specifically, a 7-week-old SD-type or WKY-type rat received the subcutaneous administration of a solution of the present compound in saline or the oral administration of a suspension of the present compound in methylcellulose. Plasma and brain were collected from the treated rat 0.5 hour, 1 hour or 2 hours after the administration, and then the concentrations of the present compound in the plasma and the brain were measured by a LC-MS method.
The protein binding ratios of the present compound to the plasma and the brain were measured by an equilibrium dialysis method.
The concentrations of the present compound in the plasma and the brain as well as the plasma and brain protein binding ratios are applied to the following formula, and thus Kp,uu,brain (Unbound brain-to-plasma drug concentration ratio) can be calculated.
Kp,uu,brain=(the concentration of the present compound in the brain×(100−the brain protein binding ratio (%))/100)/(the concentration of the present compound in the plasma×(100−the plasma protein binding ratio (%))/100)

[2] = molecular target: T1, human brain-derived dopamine D4 receptor (Homo sapiens, UniProt P21917); assay: Agonistic activity in G protein dependent pathway of dopamine D4 receptor (aequorin intracellular calcium luminescence, FDSS); format: cell-based; conditions: for EC50: concentration required to achieve a 50% response of Emax, CHO-K1 or HEK293 cells transfected with D4 receptor; for Emax: read-out: Maximal activity on D4 receptor (%)
T1 construct: expressed in transfected cells; host or cells: CHO (CHO-K1) or HEK293 cells
T1 sequence (P21917 1-419): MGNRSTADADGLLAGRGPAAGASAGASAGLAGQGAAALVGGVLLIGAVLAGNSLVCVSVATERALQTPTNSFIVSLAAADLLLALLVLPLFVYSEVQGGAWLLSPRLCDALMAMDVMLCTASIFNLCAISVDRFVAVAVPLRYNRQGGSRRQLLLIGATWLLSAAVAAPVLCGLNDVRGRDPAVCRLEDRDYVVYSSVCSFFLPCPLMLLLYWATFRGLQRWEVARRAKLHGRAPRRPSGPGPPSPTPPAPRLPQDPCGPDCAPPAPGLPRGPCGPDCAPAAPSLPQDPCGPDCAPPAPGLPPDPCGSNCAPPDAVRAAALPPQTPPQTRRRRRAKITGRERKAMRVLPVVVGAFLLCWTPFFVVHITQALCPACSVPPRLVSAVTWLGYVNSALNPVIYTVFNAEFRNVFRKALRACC
Method in brief: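 CHO-K1 or HEK293 cells transfected with D4 receptor, cultured 24 h at 37 °C, preloaded with coelenterazine; aequorin luminescence recorded on FDSS after compound addition. Emax taken as maximal activity; EC50 as concentration giving 50% of Emax.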

| SMILES | Kp uu [1] | EC50 [2] | Emax [2] |
| --- | --- | --- | --- |
| Cc1ncc(CN2CCn3nc(-c4ccccn4)cc3C2)c(N)n1 [Example 22, 2-Methyl-5-{[2-(pyridin-2-yl)-6,7-dihydropyrazolo[1,5-a]pyrazin-5(4H)-yl]methyl}pyrimidine-4-amine] | 0.2 | 109 nM | 62% |
| Cc1ncc(CN2CCn3nc(-c4ncccc4C)c(C)c3C2)cn1 [Example 116] | 1.42 | 131 nM | 67% |
| Cc1ccc(CN2CCn3nc(-c4ncccc4F)cc3C2)cn1 [Example 50] |  | 61 nM | 41% |
| Cc1cccnc1-c1cc2n(n1)CCN(Cc1nc(C)n3ccccc13)C2 [Example 85] |  | 78 nM | 78% |
| Cc1ncc(CN2CCn3nc(-c4ncccc4C)cc3C2)c(C)n1 [Example 190, 5-[(2,4-Dimethylpyrimidin-5-yl)methyl]-2-(3-methylpyridin-2-yl)-4,5,6,7-tetrahydropyrazolo[1,5-a]pyrazine] |  | 60 nM | 61% |
| Cc1cccc(CN2CCn3nc(-c4ncccc4C)c(C)c3C2)n1 [Example 115] |  | 57 nM | 105% |
| Cc1n[nH]c2ccc(CN3CCn4nc(-c5ccccn5)cc4C3)cc12 [Example 37] |  | 62 nM | 54% |
| Cc1cccnc1-c1cc2n(n1)CCN(Cc1cc3c(cn1)OCC3)C2 [Example 185] |  | 82 nM | 51% |
| Cc1cccnc1-c1cc2n(n1)CCN(Cc1ccc(C(F)(F)F)nc1N)C2 [Example 105] |  | 69 nM | 79% |
| Cc1ccc(CN2CCn3nc(-c4ncccc4F)c(C)c3C2)cc1 [Example 82] |  | 46 nM | 91% |
| Cc1cccnc1-c1cc2n(n1)CCN(Cc1ccc3c(c1)NC(=O)CC3)C2 [Example 41] |  | 46 nM | 54% |

Compounds with a lower EC50 [2], results first:

| Kp uu [1] | EC50 [2] | Emax [2] | SMILES |
| --- | --- | --- | --- |
| 0.79 | 41 nM | 49% | Cc1cccnc1-c1cc2n(n1)CCN(Cc1nc3ccccc3[nH]1)C2 [Example 144] |
|  | 37 nM | 54% | Cc1cccnc1-c1cc2n(n1)CCN(Cc1cnc(C(C)C)nc1)C2 [Example 203] |
| 0.6 | 36 nM | 86% | Cc1c(-c2ncccc2F)nn2c1CN(Cc1ccc(C(F)(F)F)cn1)CC2 [Example 128] |
|  | 25 nM | 89% | Cc1cccnc1-c1cc2n(n1)CCN(Cc1cccc(C#N)c1)C2 [Example 62] |
| 0.58 | 14 nM | 91% | Fc1cccnc1-c1cc2n(n1)CCN(Cc1ccc3c(n1)CCC3)C2 [Example 129] |
| 0.77 | 13 nM | 104% | Cc1cccnc1-c1cc2n(n1)CCN(Cc1ccc3c(n1)CCC3)C2 [Example 113] |
|  | 12 nM | 63% | Clc1c(-c2ccccn2)nn2c1CN(Cc1ccccc1)CC2 [Example 173, 5-Benzyl-3-chloro-2-(pyridin-2-yl)-4,5,6,7-tetrahydropyrazolo[1,5-a]pyrazine] |
